Reference: article PMC7256013, “Preclinical evaluation of cationic DOTA-triarginine-lipid conjugates for theranostic liquid brachytherapy” (Nanotheranostics, 2020)

What was measured:
[1] = Ex vivo well counting of tumor and organs; settings: ex vivo after the 24-hour scan, mean ± SEM
Experimental: After the completion of PET/CT imaging, mice were sacrificed and tumor, spleen, and liver tissue were collected and well counted (Wizard, Perkin Elmer, US). Tissue radioactivity was recorded and corrected for isotope decay and well counter efficiency. Final results are presented in %ID/organ calculated from activity and the tissue weight.

[2] = Intratumoral distribution of radioactivity, voxel frequency distribution from PET
Experimental: (§1) Mice were injected intratumorally with ^64Cu-compounds in concentrations of 40 MBq/mL. During the scan procedures, mice were anaesthetized using 3-4 % sevoflurane (Abbott Scandinavia AB, Sweden) mixed with 35% O2 and 65% medical grade air and placed on heating pads. Two mice were positioned side-by-side, separated by a 6 mm polystyrene block for PET/CT imaging using Inveon® small animal PET/CT system with CT based PET image attenuation (Siemens Medical Systems, Malvern, PA, USA). The protocol included a 12-minute PET scan, followed by a CT scan. Mice were fixed on a bed inside the scanner with the syringe placed and the needle fixed centrally in the tumor and ready for injection. Upon initiation of the first scan, intratumoral injections were done manually over 30 seconds, to investigate the initial dynamics of the tracer diffusion. Following this, two further scans were included; at six hours (5 minutes scan time) and 24 hours (12 minutes scan time) after injection. Reconstruction of the PET scans were performed using maximum a posteriori (MAP) reconstruction algorithm (voxel size: 0.815 x 0.815 x 0.796 mm; resolution (FWHM) 1.2 mm). The injection scan was reconstructed in 4 x 30 second and 10 x 60 second time frames to observe the dynamics of tracer diffusion. The two last time points were reconstructed in a single time frame.
(§2) Image analysis was performed using commercially available Inveon software (Siemens Medical Systems, Malvern, PA, USA). Regions of interest (ROIs) were manually drawn based on the co-registered PET/CT images. The following ROIs were constructed; tumors (complete volume delineated), liver, spleen, kidney, bladder, and blood. Blood activity was estimated from a constructed ROI covering the left ventricular lumen of the heart. ROIs in the left ventricle and abdominal aorta were subsequently segmented to only include the voxels displaying above 80% of maximum activity with the original ROI. From the obtained uptake values all data was calculated into %ID/g for each organ and as %ID in tumors by adjusting for CT based tumor volume. Furthermore, voxel values from tumor ROIs were used to generate histograms for substance diffusion over time in the tumor region.
Note that the first point in each plot represents the percentage of voxels with radioactivity concentrations lower than 1.6 %ID/g. These voxels are considered empty, meaning that the corresponding tumor region is non-radioactive.

[3] = Tumor retention and biodistribution by PET/CT after intratumoral injection; settings: mean ± SEM; for Absolute retention of radioactivity in tumors: PET; for tumor retention: CT26 tumor, PET/CT
Experimental: CT26 wildtype cells (murine colon carcinoma, ATCC, Virginia, US) were cultured RPMI (Roswell Park Memorial Institute) medium supplemented with 10 % heat-inactivated Fetal Calf Serum (FCS) and 1 % Penicillin-Streptomycin (Invitrogen, Carlsbad, CA., US) retained in 5 % CO2 incubator at 37 °C. Immunocompetent female Balb/C mice (Charles River, Wilmington, MA., USA) were inoculated with tumor cells after one week of adaptation. All 20 mice included were inoculated subcutaneously with 3 x 10^5 CT26 wildtype cells in 100 µL medium on the right flank and hereafter monitored for weight and tumor size continuously for study purposes and to monitor the health of the mice. Tumor sizes were calculated from the formula of 0.52 x lenght^2 x width, as measured by external caliper. Animals were included in the study when tumors were approximately 400 mm^3.
as §1, §2

[4] = 5 minutes after the start of the PET scan
[5] = 12 minutes post intratumoral injection, 40 MBq/mL

Accumulation of radioactivity in liver [1] [ID%/g] | Accumulation of radioactivity in spleen [1] [ID%/g] | Accumulation of radioactivity in tumor [1] [ID%/g] | non-radioactive voxels in tumor (<1.6 %ID/g) [2, 4] | Absolute retention of radioactivity in tumors ([3]; 0.25 min) [%ID/g] | Absolute retention of radioactivity in tumors ([3]; 0.75 min) [%ID/g] | Absolute retention of radioactivity in tumors ([3]; 1.25 min) [%ID/g] | Absolute retention of radioactivity in tumors ([3]; 1.75 min) [%ID/g] | Absolute retention of radioactivity in tumors ([3]; 2.5 min) [%ID/g] | Absolute retention of radioactivity in tumors ([3]; 3.5 min) [%ID/g] | Absolute retention of radioactivity in tumors ([3]; 4.5 min) [%ID/g] | Absolute retention of radioactivity in tumors ([3]; 5.5 min) [%ID/g] | Absolute retention of radioactivity in tumors ([3]; 6.5 min) [%ID/g] | Absolute retention of radioactivity in tumors ([3]; 7.5 min) [%ID/g] | Absolute retention of radioactivity in tumors ([3]; 8.5 min) [%ID/g] | Absolute retention of radioactivity in tumors ([3]; 9.5 min) [%ID/g] | Absolute retention of radioactivity in tumors ([3]; 10.5 min) [%ID/g] | Absolute retention of radioactivity in tumors ([3]; 11.5 min) [%ID/g] | tumor retention [3, 5] [%ID/tumor] | Absolute retention of radioactivity in tumors ([3]; 6 h) [%ID/g] | SMILES | further results
1 ± 0.2 | 0.3 ± 0.05 | 1 ± 0.3 | less than 10% | 78 ± 37 | 130 ± 13 | 127 ± 14 | 123 ± 14 | 120 ± 14 | 115 ± 14 | 111 ± 14 | 108 ± 14 | 105 ± 14 | 102 ±14 | 100 ± 14 | 97 ± 13 | 94 ± 13 | 92 ± 12 | 52 ± 4 | 4 ± 1 | O=C([O-])CN1CCN(CC(=O)[O-])CCN(CC(=O)O)CCN(CC(=O)O)CC1.[64Cu+2] [64Cu-DOTA] | non-radioactive voxels in tumor (<1.6 %ID/g) ([2]; 6 h): More than 40%; tumor retention ([3]; 6 hours post intratumoral injection): 2.4 ± 0.7 %ID/tumor; Absolute retention of radioactivity in tumors ([3]; 24 h): 2 ± 0.8 %ID/g; tumor retention ([3]; 24 hours post intratumoral injection): 1.4 ± 0.4 %ID/tumor
14 ± 1 | 2 ± 0.6 | 11 ± 3 | less than 10% | 97 ± 19 | 167 ± 50 | 164 ± 53 | 162 ± 54 | 159 ± 53 | 156 ± 54 | 154 ± 53 | 152 ± 53 | 150 ± 53 | 148 ± 52 | 146 ± 52 | 145 ± 53 | 143 ± 52 | 142 ± 51 | 45 ± 5 | 18 ± 3 | [Cl][64Cu][Cl] [Free 64CuCl2] | Absolute retention of radioactivity in tumors ([3]; 24 h): 10 ± 1 %ID/g
